Measurements taken from the supplement of paper PMC6045584.
± gives the standard deviation of the averaged measurements.

The test systems below were run with CCCS(=O)(=O)Nc1ccc(F)c(C(=O)c2c[nH]c3ncc(Cl)cc23)c1F [PLX-4720] (assay: surviving fraction relative to DMSO-only wells; higher = less growth inhibition). Conditions: 500 nM; exposure time: 5 days.
Outline: (§1)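 Lines were retained only if, across three screens, replicate Pearson r was >0.7 and median Z' was >0.3. Viability was measured as CellTiter-Glo luminescence and reported as surviving fraction relative to the median of DMSO-only wells. Readings followed 10 minutes at room temperature, after log-phase tumour cells seeded at 250–500 per well in 384-well plates had been exposed, from 24 hours after seeding, continuously for five days to inhibitors at 0.5, 1, 5, 10, 50, 100, 500 and 1000 nM.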

With MDAMB436 BREAST as the test system, how does the surviving fraction read?
Its surviving fraction is 0.901 ± 0.062.

For MDAMB453 BREAST, which surviving fraction is on record?
Its surviving fraction is 1.03 ± 0.044.

Which surviving fraction does the source give for MDAMB468 BREAST here?
Its surviving fraction is 0.961 ± 0.045.

For MFM223 BREAST, which surviving fraction is on record?
The surviving fraction was 0.981 ± 0.025.

With MG63 BONE as the test system, how does the surviving fraction read?
Its surviving fraction is 0.933 ± 0.013.

With MHM BONE as the test system, how does the surviving fraction read?
The surviving fraction was 0.949 ± 0.0092.

For NCIH441 LUNG, which surviving fraction is on record?
The surviving fraction was 0.961 ± 0.044.

NOS1 BONE was tested. Which surviving fraction did it give?
Its surviving fraction is 1.11 ± 0.12.

With NY BONE as the test system, how does the surviving fraction read?
Its surviving fraction is 0.932 ± 0.0095.

OS25HAL BONE was tested. Which surviving fraction did it give?
Its surviving fraction is 0.966 ± 0.0046.

How did the surviving fraction turn out when OSHN BONE was run?
Its surviving fraction is 0.978 ± 0.019.

For PCI30 HEADNECK, which surviving fraction is on record?
Its surviving fraction is 0.938 ± 0.087.

How did the surviving fraction turn out when RDES SOFT TISSUE was run?
Its surviving fraction is 0.994 ± 0.054.

How did the surviving fraction turn out when S68 BREAST was run?
The surviving fraction was 1.09 ± 0.16.

For SAOS2 BONE, which surviving fraction is on record?
Its surviving fraction is 1.108 ± 0.0092.

With SCC36 HEADNECK as the test system, how does the surviving fraction read?
Its surviving fraction is 0.974 ± 0.13.

For SCC47 HEADNECK, which surviving fraction is on record?
The surviving fraction was 0.999 ± 0.14.

With SCC90 HEADNECK as the test system, how does the surviving fraction read?
The surviving fraction was 0.64 ± 0.1.

With SG27 HEADNECK as the test system, how does the surviving fraction read?
The surviving fraction was 0.928 ± 0.1.

SG28 HEADNECK was tested. Which surviving fraction did it give?
The surviving fraction was 0.818 ± 0.11.

How did the surviving fraction turn out when SG31 HEADNECK was run?
Its surviving fraction is 0.963 ± 0.025.

How did the surviving fraction turn out when SG32 HEADNECK was run?
The surviving fraction was 0.623 ± 0.16.

Which surviving fraction does the source give for SG43 HEADNECK here?
Its surviving fraction is 1.65 ± 0.22.

For SIHA CERVIX, which surviving fraction is on record?
The surviving fraction was 1.06 ± 0.041.

Which surviving fraction does the source give for SJSA1 BONE here?
The surviving fraction was 0.998 ± 0.059.

How did the surviving fraction turn out when SKBR3 BREAST was run?
Its surviving fraction is 0.986 ± 0.17.

Which surviving fraction does the source give for SNU475 LIVER here?
Its surviving fraction is 0.839 ± 0.024.

With SUM44 BREAST as the test system, how does the surviving fraction read?
Its surviving fraction is 0.946 ± 0.045.

For SUM149 BREAST, which surviving fraction is on record?
Its surviving fraction is 0.821 ± 0.05.

Which surviving fraction does the source give for SUM149.B1*.S BREAST here?
The surviving fraction was 0.863 ± 0.038.

Which surviving fraction does the source give for SUM159 BREAST here?
The surviving fraction was 1.1 ± 0.24.

With SYO1 SYNOVIAL as the test system, how does the surviving fraction read?
The surviving fraction was 0.865 ± 0.11.

How did the surviving fraction turn out when T47D BREAST was run?
The surviving fraction was 0.994 ± 0.021.

Which surviving fraction does the source give for U2OS BONE here?
Its surviving fraction is 1.07 ± 0.026.

For VCAP PROSTATE, which surviving fraction is on record?
Its surviving fraction is 1.08 ± 0.061.

Which surviving fraction does the source give for VP229 BREAST here?
The surviving fraction was 1.248 ± 0.0097.

With YAMATO SYNOVIAL as the test system, how does the surviving fraction read?
The surviving fraction was 0.874 ± 0.083.

With ZR751 BREAST as the test system, how does the surviving fraction read?
Its surviving fraction is 0.949 ± 0.086.

Same assay, conditions: 1000 nM; exposure time: 5 days

For MDAMB361 BREAST, which surviving fraction is on record?
The surviving fraction was 0.86 ± 0.078.

For MDAMB436 BREAST, which surviving fraction is on record?
Its surviving fraction is 0.909 ± 0.1.

With MDAMB453 BREAST as the test system, how does the surviving fraction read?
The surviving fraction was 1.03 ± 0.042.

MDAMB468 BREAST was tested. Which surviving fraction did it give?
The surviving fraction was 0.924 ± 0.025.

How did the surviving fraction turn out when MFM223 BREAST was run?
Its surviving fraction is 1.01 ± 0.11.

With MG63 BONE as the test system, how does the surviving fraction read?
Its surviving fraction is 0.963 ± 0.033.

With MHM BONE as the test system, how does the surviving fraction read?
Its surviving fraction is 1.01 ± 0.038.

NCIH441 LUNG was tested. Which surviving fraction did it give?
The surviving fraction was 0.898 ± 0.085.

How did the surviving fraction turn out when NOS1 BONE was run?
The surviving fraction was 0.911 ± 0.057.

For NY BONE, which surviving fraction is on record?
The surviving fraction was 0.9273 ± 0.0065.

How did the surviving fraction turn out when OS25HAL BONE was run?
Its surviving fraction is 0.974 ± 0.014.

How did the surviving fraction turn out when OSHN BONE was run?
The surviving fraction was 0.975 ± 0.016.

Which surviving fraction does the source give for PCI30 HEADNECK here?
Its surviving fraction is 0.959 ± 0.07.

With RDES SOFT TISSUE as the test system, how does the surviving fraction read?
Its surviving fraction is 0.793 ± 0.13.

Which surviving fraction does the source give for S68 BREAST here?
Its surviving fraction is 0.962 ± 0.15.

With SAOS2 BONE as the test system, how does the surviving fraction read?
Its surviving fraction is 1.13 ± 0.095.

Which surviving fraction does the source give for SCC36 HEADNECK here?
Its surviving fraction is 0.958 ± 0.067.

SCC47 HEADNECK was tested. Which surviving fraction did it give?
The surviving fraction was 1.01 ± 0.051.

SCC90 HEADNECK was tested. Which surviving fraction did it give?
The surviving fraction was 0.539 ± 0.053.

Which surviving fraction does the source give for SG27 HEADNECK here?
The surviving fraction was 0.955 ± 0.1.

Which surviving fraction does the source give for SG28 HEADNECK here?
The surviving fraction was 0.959 ± 0.036.

For SG31 HEADNECK, which surviving fraction is on record?
Its surviving fraction is 1.06 ± 0.12.

SG32 HEADNECK was tested. Which surviving fraction did it give?
Its surviving fraction is 0.821 ± 0.035.

SG43 HEADNECK was tested. Which surviving fraction did it give?
Its surviving fraction is 1.7 ± 0.078.

How did the surviving fraction turn out when SIHA CERVIX was run?
Its surviving fraction is 1.09 ± 0.055.

For SJSA1 BONE, which surviving fraction is on record?
Its surviving fraction is 0.955 ± 0.074.

With SKBR3 BREAST as the test system, how does the surviving fraction read?
The surviving fraction was 0.892 ± 0.14.

With SNU475 LIVER as the test system, how does the surviving fraction read?
The surviving fraction was 1 ± 0.055.

SUM44 BREAST was tested. Which surviving fraction did it give?
Its surviving fraction is 0.92 ± 0.03.

For SUM149 BREAST, which surviving fraction is on record?
Its surviving fraction is 0.919 ± 0.011.

With SUM149.B1*.S BREAST as the test system, how does the surviving fraction read?
Its surviving fraction is 1.02 ± 0.015.

With SUM159 BREAST as the test system, how does the surviving fraction read?
The surviving fraction was 1.11 ± 0.21.

Which surviving fraction does the source give for SYO1 SYNOVIAL here?
The surviving fraction was 0.988 ± 0.061.

How did the surviving fraction turn out when T47D BREAST was run?
Its surviving fraction is 1.01 ± 0.043.

With U2OS BONE as the test system, how does the surviving fraction read?
The surviving fraction was 1.1 ± 0.039.

VCAP PROSTATE was tested. Which surviving fraction did it give?
The surviving fraction was 1.07 ± 0.023.

With VP229 BREAST as the test system, how does the surviving fraction read?
The surviving fraction was 1.25 ± 0.13.

YAMATO SYNOVIAL was tested. Which surviving fraction did it give?
The surviving fraction was 1.24 ± 0.091.

ZR751 BREAST was tested. Which surviving fraction did it give?
The surviving fraction was 0.947 ± 0.061.

The test systems below were run with NC1(c2ccc(-c3nc4ccn5c(=O)[nH]nc5c4cc3-c3ccccc3)cc2)CCC1 [MK2206] in the same assay as above. Conditions: 0.5 nM; exposure time: 5 days.
Outline: as §1

How did the surviving fraction turn out when MDAMB361 BREAST was run?
Its surviving fraction is 0.985 ± 0.072.
